Measurements published in patent US6264935A, “Ophthalmic composition containing a carbonic anhydrase inhibitor and xanthan gum” (priority 1996, dated 2001).
Entries after “also recorded” stand apart in the source; their conditions may differ.

How the values were obtained:
[1] = background; result in words; cited from earlier work
[2] = rabbit, in vivo

Compound	reduction of intraocular pressure [1]	side effects / local effects [1]	change in ocular bioavailability compared with the TRUSOPT formulation [2]	duration of activity and loss of effect [1]
CC[C@@H]1C(=O)OC[C@@H]1Cc1cncn1C [pilocarpine]	reduce intraocular pressure	undesirable local effects		
polyvinyl alcohol			only minor changes in bioavailability	
CC(C)(C)NC[C@H](O)COc1nsnc1N1CCOCC1 [timolol]	found to reduce intraocular pressure	devoid of many unwanted side effects associated with pilocarpine; also recorded: devoid of local anaesthetic properties		long duration of activity; also recorded: minimal loss of effect with increased duration of dosing
cyclodextrin			only minor changes in bioavailability	
